Source: patent publication US11534457B2, “Use of dextran sulfate” (priority 2017, dated 2022)

How the values were obtained:
[1] = target: T1, protein-protein interaction between oligomeric amyloid-β and PrP^c (Homo sapiens, UniProt P04156); type: binding
[2] = target: T1, protein-protein interaction between oligomeric amyloid-β and PrP^c; details: cited from earlier work
[3] = system: Experimental Autoimmune Encephalomyelitis (EAE); assay: Mouse Experimental Autoimmune Encephalomyelitis (EAE) model, clinical score; type: in vivo, C57B1.6 mice; details: 100 ng/dose i.v. every other day from day 18

| Molecule | Competable binding (%) [1] | Hill coefficient [1] | IC50 [1] | competition for the protein-protein interaction (in words) [1] | effective concentrations to compete with the protein-protein interaction (Aimi et al.) [2] | mean EAE score vs vehicle [3] |
| --- | --- | --- | --- | --- | --- | --- |
| dextran sulphate sodium salt [DSSS] | 101 ± 2% | 1.51 ± 0.06 | 0.62 ± 0.07 µg/mL | competed for the protein-protein interaction between oligomeric amyloid-β and PrP^c in a concentration dependent manner | in the low μg/ml range |  |
| dextran |  |  |  | failed to compete appreciably |  |  |
| HGF: Hepatocyte growth factor (HGF) recombinant mouse (R&D Systems) (protein, UniProt Q08048 33-495; Q08048 496-728, looked up) Hepatocyte growth factor …: QKKRRNTLHEFKKSAKTTLTKEDPLLKIKTKKVNSADECANRCIRNRGFTFTCKAFVFDKSRKRCYWYPFNSMSSGVKKGFGHEFDLYENKDYIRNCIIGKGGSYKGTVSITKSGIKCQPWNSMIPHEHSFLPSSYRGKDLQENYCRNPRGEEGGPWCFTSNPEVRYEVCDIPQCSEVECMTCNGESYRGPMDHTESGKTCQRWDQQTPHRHKFLPERYPDKGFDDNYCRNPDGKPRPWCYTLDPDTPWEYCAIKTCAHSAVNETDVPMETTECIQGQGEGYRGTSNTIWNGIPCQRWDSQYPHKHDITPENFKCKDLRENYCRNPDGAESPWCFTTDPNIRVGYCSQIPKCDVSSGQDCYRGNGKNYMGNLSKTRSGLTCSMWDKNMEDLHRHIFWEPDASKLNKNYCRNPDDDAHGPWCYTGNPLIPWDYCPISRCEGDTTPTIVNLDHPVISCAKTKQLR Hepatocyte growth factor beta …: VVNGIPTQTTVGWMVSLKYRNKHICGGSLIKESWVLTARQCFPARNKDLKDYEAWLGIHDVHERGEEKRKQILNISQLVYGPEGSDLVLLKLARPAILDNFVSTIDLPSYGCTIPEKTTCSIYGWGYTGLINADGLLRVAHLYIMGNEKCSQHHQGKVTLNESELCAGAEKIGSGPCEGDYGGPLICEQHKMRMVLGVIVPGRGCAIPNRPGIFVRVAYYAKWIHKVILTYKL |  |  |  |  |  | did not result in any significant difference |
